Key:
Hs578T [1] = assay: normalised viability (% of control), CellTiter-Blue; higher = more viable cells (100 = DMSO, 0 = benzethonium chloride kill control); conditions: incubation time: 72 h
Summary of the method: (§1)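 Normalised viability is given for a single listed concentration of the series. In 384-well plates, breast cancer cell lines were incubated 72 h with compound, then read with CellTiter-Blue (2 h, 37 °C) at 560/590 nm. Per-plate scaling set vehicle to 100 and a positive kill control to 0, with Z'-factor quality control.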

MDA-MB-436 [2] = assay: as above; conditions: incubation time: 72 h
Summary of the method: as §1

CAL-120 [3] = conditions: 72 h
Summary of the method: (§2)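 In this assay, breast cancer cell lines spent 72 h with compound at 5 concentrations in 10-fold steps over a compound-specific 10,000-fold range. The first readout was cell death by CellTox Green fluorescence, and the second was viability by CellTiter-Glo luminescence, each normalised per plate to 0.1 % DMSO and a positive kill control. EC50 came from the dose-response curves, censored at the top concentration.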

MDA-MB-453 [4] = conditions: 72 h
Summary of the method: as §2

CAL-51 [5] = conditions: 72 h
Summary of the method: as §2

HCC1937 [6] = conditions: 72 h
Summary of the method: as §2

BT-549 [7] = conditions: 72 h
Summary of the method: as §2

SK-BR-3 [8] = conditions: 72 h
Summary of the method: as §2

MDA-MB-468 [9] = conditions: 72 h
Summary of the method: as §2

CAL-85-1 [10] = conditions: 72 h
Summary of the method: as §2

BT-474 [11] = conditions: 72 h
Summary of the method: as §2

MCF-10A = conditions: 72 h
Summary of the method: as §2

MDA-MB-231 [12] = conditions: 72 h
Summary of the method: as §2

Hs578T [13] = conditions: 72 h
Summary of the method: as §2

MDA-MB-436 [14] = conditions: 72 h
Summary of the method: as §2

HDQ-P1 [15] = assay: normalised viability (% of control), CellTiter-Blue; higher = more viable cells (about 100 = DMSO control); conditions: incubation time: 72 h
Summary of the method: as §1

CAL-148 [16] = assay: as above; conditions: incubation time: 72 h
Summary of the method: as §1

BT-474 [17] = assay: as above; conditions: incubation time: 72 h
Summary of the method: as §1

MDA-MB-231 [18] = assay: as above; conditions: incubation time: 72 h
Summary of the method: as §1

MDA-MB-436 [19] = assay: as above; conditions: incubation time: 72 h
Summary of the method: as §1

HDQ-P1 [20] = assay: as above; conditions: incubation time: 72 h; remark: listed apart in the source
Summary of the method: as §1

MFM-223 = assay: as above; conditions: incubation time: 72 h
Summary of the method: as §1

CAL-120 [21] = assay: as above; conditions: incubation time: 72 h
Summary of the method: as §1

HCC1143 = assay: as above; conditions: incubation time: 72 h
Summary of the method: as §1

DU-4475 = assay: as above; conditions: incubation time: 72 h
Summary of the method: as §1

MDA-MB-453 [22] = assay: as above; conditions: incubation time: 72 h
Summary of the method: as §1

CAL-51 [23] = assay: as above; conditions: incubation time: 72 h
Summary of the method: as §1

CAL-148 [24] = assay: as above; conditions: incubation time: 72 h; remark: listed apart in the source
Summary of the method: as §1

HCC1937 [25] = assay: as above; conditions: incubation time: 72 h
Summary of the method: as §1

BT-549 [26] = assay: as above; conditions: incubation time: 72 h
Summary of the method: as §1

SK-BR-3 [27] = assay: as above; conditions: incubation time: 72 h
Summary of the method: as §1

MDA-MB-468 [28] = assay: as above; conditions: incubation time: 72 h
Summary of the method: as §1

CAL-85-1 [29] = assay: as above; conditions: incubation time: 72 h
Summary of the method: as §1

BT-474 [30] = assay: as above; conditions: incubation time: 72 h; remark: listed apart in the source
Summary of the method: as §1

HCC1599 = assay: as above; conditions: incubation time: 72 h
Summary of the method: as §1

MDA-MB-231 [31] = assay: as above; conditions: incubation time: 72 h; remark: listed apart in the source
Summary of the method: as §1

Hs578T [32] = assay: as above; conditions: incubation time: 72 h
Summary of the method: as §1

MDA-MB-436 [33] = assay: as above; conditions: incubation time: 72 h; remark: listed apart in the source
Summary of the method: as §1

CN1CCN(CCOc2cc(OC3CCOCC3)c3c(Nc4c(Cl)ccc5c4OCO5)ncnc3c2)CC1 [Saracatinib]
Conditions | normalised viability [%]
BT-474 [17], 10000 nM | 42.4
BT-474 [30], 10 nM | 100
BT-549 [26], 10 nM | 94.2
CAL-51 [23], 3 nM | 107
CAL-85-1 [29], 3 nM | 85.5
CAL-120 [21], 10 nM | 87.6
CAL-148 [16], 100 nM | 85.3
CAL-148 [24], 3 nM | 77.1
DU-4475, 3 nM | 96.6
HCC1143, 10 nM | 88
HCC1599, 10 nM | 86.7
HCC1937 [25], 10 nM | 107
HDQ-P1 [15], 100 nM | 111
HDQ-P1 [20], 3 nM | 118
Hs578T [1], 1 nM | 107
Hs578T [32], 10 nM | 102
MDA-MB-231 [18], 10000 nM | 60.6
MDA-MB-231 [31], 10 nM | 80.7
MDA-MB-436 [2], 1 nM | 122
MDA-MB-436 [19], 10000 nM | 72.1
MDA-MB-436 [33], 10 nM | 116
MDA-MB-453 [22], 3 nM | 119
MDA-MB-468 [28], 10 nM | 108
MFM-223, 10 nM | 104
SK-BR-3 [27], 10 nM | 99.6

Conditions | EC50, CellTiter-Glo [nM]
BT-474 [11] | 2010
BT-549 [7] | 1600
CAL-51 [5] | 805
CAL-85-1 [10] | 953
CAL-120 [3] | > 10000
HCC1937 [6] | > 10000
Hs578T [13] | 2330
MCF-10A | 354
MDA-MB-231 [12] | 901
MDA-MB-436 [14] | > 10000
MDA-MB-453 [4] | 1360
MDA-MB-468 [9] | 1840
SK-BR-3 [8] | 2120

COc1ccc(-c2ccc3c(N4CCOC[C@@H]4C)nc(N4CCOC[C@@H]4C)nc3n2)cc1CO [AZD8055]
Conditions | normalised viability [%]
BT-474 [17], 10000 nM | 16.9
BT-474 [30], 10 nM | 108
BT-549 [26], 10 nM | 92.5
CAL-51 [23], 3 nM | 88.2
CAL-85-1 [29], 3 nM | 85.1
CAL-120 [21], 10 nM | 91.4
CAL-148 [16], 100 nM | 30.4
CAL-148 [24], 3 nM | 89.3
DU-4475, 3 nM | 95.8
HCC1143, 10 nM | 100
HCC1599, 10 nM | 89.3
HCC1937 [25], 10 nM | 77.2
HDQ-P1 [15], 100 nM | 45.6
HDQ-P1 [20], 3 nM | 83.4
Hs578T [1], 1 nM | 105
Hs578T [32], 10 nM | 91.1
MDA-MB-231 [18], 10000 nM | 22.7
MDA-MB-231 [31], 10 nM | 80.7
MDA-MB-436 [2], 1 nM | 113
MDA-MB-436 [19], 10000 nM | 40.1
MDA-MB-436 [33], 10 nM | 98.3
MDA-MB-453 [22], 3 nM | 94.6
MDA-MB-468 [28], 10 nM | 98.2
MFM-223, 10 nM | 71.9
SK-BR-3 [27], 10 nM | 72.5

Conditions | EC50, CellTiter-Glo [nM]
BT-474 [11] | 121
BT-549 [7] | 30.8
CAL-51 [5] | 45.4
CAL-85-1 [10] | 31.8
CAL-120 [3] | 37.5
HCC1937 [6] | 100
Hs578T [13] | 57.5
MCF-10A | 61
MDA-MB-231 [12] | 73.8
MDA-MB-436 [14] | 11.6
MDA-MB-453 [4] | 24.6
MDA-MB-468 [9] | 43.3
SK-BR-3 [8] | 7.23

CC[C@]1(O)C[C@H]2CN(CCc3c([nH]c4ccccc34)[C@@](C(=O)OC)(c3cc4c(cc3OC)N(C=O)[C@H]3[C@@](O)(C(=O)OC)[C@H](OC(C)=O)[C@]5(CC)C=CCN6CC[C@]43[C@@H]65)C2)C1 [Vincristine]
Conditions | normalised viability [%]
BT-474 [17], 1000 nM | 55.9
BT-474 [17], 10000 nM | 47.9
BT-474 [30], 1 nM | 53.4
BT-474 [30], 10 nM | 47.9
BT-549 [26], 1 nM | 82.7
BT-549 [26], 10 nM | 43.7
CAL-51 [23], 0.3 nM | 102
CAL-51 [23], 3 nM | 103
CAL-85-1 [29], 0.3 nM | 95.6
CAL-85-1 [29], 3 nM | 86.1
CAL-120 [21], 1 nM | 58.2
CAL-120 [21], 10 nM | 23.4
CAL-148 [16], 10 nM | 21.4
CAL-148 [16], 100 nM | 20.6
CAL-148 [24], 0.3 nM | 80.4
CAL-148 [24], 3 nM | 85.3
DU-4475, 0.3 nM | 96.6
DU-4475, 3 nM | 89
HCC1143, 1 nM | 71
HCC1143, 10 nM | 40.7
HCC1599, 1 nM | 84.1
HCC1599, 10 nM | 106
HCC1937 [25], 1 nM | 99.2
HCC1937 [25], 10 nM | 23.1
HDQ-P1 [15], 10 nM | 46.4
HDQ-P1 [15], 100 nM | 43.8
HDQ-P1 [20], 0.3 nM | 100
HDQ-P1 [20], 3 nM | 96.4
Hs578T [1], 0.1 nM | 120
Hs578T [1], 1 nM | 92.6
Hs578T [32], 1 nM | 97.2
Hs578T [32], 10 nM | 15.5
MDA-MB-231 [18], 1000 nM | 14.4
MDA-MB-231 [18], 10000 nM | 14.5
MDA-MB-231 [31], 1 nM | 73.8
MDA-MB-231 [31], 10 nM | 27.5
MDA-MB-436 [2], 0.1 nM | 89.4
MDA-MB-436 [2], 1 nM | 109
MDA-MB-436 [19], 1000 nM | 30.2
MDA-MB-436 [19], 10000 nM | 50.3
MDA-MB-436 [33], 1 nM | 105
MDA-MB-436 [33], 10 nM | 70.6
MDA-MB-453 [22], 0.3 nM | 112
MDA-MB-453 [22], 3 nM | 65
MDA-MB-468 [28], 1 nM | 54.2
MDA-MB-468 [28], 10 nM | 41.2
MFM-223, 1 nM | 91.1
MFM-223, 10 nM | 85.5
SK-BR-3 [27], 1 nM | 33.8
SK-BR-3 [27], 10 nM | 15.9

Conditions | EC50, CellTiter-Glo [nM]
BT-474 [11] | 7.55
BT-549 [7] | 1.71
CAL-51 [5] | 57.3
CAL-85-1 [10] | 2.7
CAL-120 [3] | 3.26
HCC1937 [6] | 2.89
Hs578T [13] | 16.2
MCF-10A | 2.93
MDA-MB-231 [12] | 11.6
MDA-MB-436 [14] | 11.6
MDA-MB-453 [4] | 6.53
MDA-MB-468 [9] | 2.18
SK-BR-3 [8] | 2.33

Reference: the supplement of paper PMC4862054
